Structures are written as SMILES.

The target of the assay is RAC-alpha serine/threonine-protein kinase (Homo sapiens, UniProt P31749). The assay can be described thus: Homogeneous Time-Resolved Fluorescence Resonance Energy Transfer Lance Assay. The following applies: pH 7.4; 22 °C. The procedure: AKT1 was assayed using constitutively active Myr-AKT1 in low-binding 96-well plates. The kinase reactions were initiated by the addition of assay mix containing kinase assay buffer, ATP, and a biotinylated substrate peptide. After incubation, Phosphorylated biotin-GSK3alpha was detected by the time-resolved fluorescence resonance energy transfer Lance format with all reagents obtained from Perkin-Elmer. Subsequently, the plates were read in a Victor plate reader (Wallac/Perkin-Elmer).
RAC-alpha serine/threonine-protein kinase, sequence (P31749 whole entry): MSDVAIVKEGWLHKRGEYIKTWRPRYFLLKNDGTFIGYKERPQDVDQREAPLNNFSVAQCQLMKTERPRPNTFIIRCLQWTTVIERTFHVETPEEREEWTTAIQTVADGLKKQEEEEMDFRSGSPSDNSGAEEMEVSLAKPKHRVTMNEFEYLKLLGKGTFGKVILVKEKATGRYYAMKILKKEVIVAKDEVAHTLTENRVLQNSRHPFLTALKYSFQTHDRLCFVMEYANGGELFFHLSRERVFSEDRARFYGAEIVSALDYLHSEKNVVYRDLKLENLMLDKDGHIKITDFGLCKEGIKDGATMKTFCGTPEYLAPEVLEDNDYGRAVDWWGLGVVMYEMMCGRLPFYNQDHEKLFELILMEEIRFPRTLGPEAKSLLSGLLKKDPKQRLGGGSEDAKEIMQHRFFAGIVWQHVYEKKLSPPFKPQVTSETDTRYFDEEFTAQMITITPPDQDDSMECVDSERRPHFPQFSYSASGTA

What is called IC50 is the concentration needed to halve the response being measured. Low readings indicate greater potency in that assay, high ones weaker potency in that assay. The compound `O=C1C[C@H]2O[C@@H](c3ccsc3)C3=C(C(=O)c4ccccc4C3=O)[C@H]2O1` [Pyranonaphthoquinone (PNQ) lactone, 11f] registered a 50% inhibitory concentration (IC50) of 122 nM.

Compound `C[C@H]1O[C@@H]2CC(=O)O[C@@H]2C2=C1C(=O)c1c(O)cccc1C2=O` had an IC50 of 313 nM.

As for `O=C1C[C@@H]2O[C@H](c3ccsc3)C3=C(C(=O)c4ccccc4C3=O)[C@@H]2O1` [Pyranonaphthoquinone (PNQ) lactone, 11e], the IC50 was determined as 99 nM.

Compound `C[C@H]1O[C@@H]2CC(=O)O[C@@H]2C2=C1C(=O)c1c(ccc(C3C[C@@H](N(C)C)[C@H](O)[C@@H](C)O3)c1O)C2=O` (some centres undefined) [Lactoquinomycin A] showed a 50% inhibitory concentration (IC50) of 149 nM.

(Values after BindingDB's records for doi:10.1021/jm900075g (Wyeth Research, 2009).)
